The values that follow come from patent US6875761B2 (Eisai Co., Ltd., priority 1997, dated 2005).

The structures appear in SMILES notation. Where a name gives a salt, the structure may show the parent alone.

One assay addresses T1, serotonin 1A receptor (Rattus norvegicus, UniProt P19327).
T1 construct: To the receptor fraction of the hippocampus were added a test compound and 0.5 nM of [^3H]; 8-hydroxy-dipropylaminotetralin; from tissue; host or cells: rat hippocampus membrane fraction
T1 sequence (P19327 1-422): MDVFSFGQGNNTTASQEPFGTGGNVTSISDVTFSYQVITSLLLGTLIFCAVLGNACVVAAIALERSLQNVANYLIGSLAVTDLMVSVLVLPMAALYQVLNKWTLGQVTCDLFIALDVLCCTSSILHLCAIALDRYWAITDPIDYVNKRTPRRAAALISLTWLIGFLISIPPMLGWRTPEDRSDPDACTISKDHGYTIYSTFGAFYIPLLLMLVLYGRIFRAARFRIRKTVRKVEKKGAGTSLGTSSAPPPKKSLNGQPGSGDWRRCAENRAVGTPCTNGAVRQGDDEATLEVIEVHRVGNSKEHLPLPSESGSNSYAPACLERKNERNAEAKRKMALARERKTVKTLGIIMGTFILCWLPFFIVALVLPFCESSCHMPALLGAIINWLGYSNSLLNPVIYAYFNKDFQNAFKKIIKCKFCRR
Nature of the assay: Binding test on [3H] 8-hydroxy-dipropylaminotetralin, hippocampus receptor fraction. Details: species or system SD rats. As to conditions: rat hippocampus receptor fraction, 0.5 nM [3H] 8-OH-DPAT, room temperature 30 min; read-out: 5HT1.

The target in a further assay is T2, serotonin 2 receptor (Rattus norvegicus, UniProt P14842).
T2 construct: To the receptor fraction of the cerebral cortex were added a test compound and 0.3 nM of [^3H] ketanserin; from tissue; host or cells: rat cerebral cortex membrane fraction
T2 sequence (P14842 whole entry): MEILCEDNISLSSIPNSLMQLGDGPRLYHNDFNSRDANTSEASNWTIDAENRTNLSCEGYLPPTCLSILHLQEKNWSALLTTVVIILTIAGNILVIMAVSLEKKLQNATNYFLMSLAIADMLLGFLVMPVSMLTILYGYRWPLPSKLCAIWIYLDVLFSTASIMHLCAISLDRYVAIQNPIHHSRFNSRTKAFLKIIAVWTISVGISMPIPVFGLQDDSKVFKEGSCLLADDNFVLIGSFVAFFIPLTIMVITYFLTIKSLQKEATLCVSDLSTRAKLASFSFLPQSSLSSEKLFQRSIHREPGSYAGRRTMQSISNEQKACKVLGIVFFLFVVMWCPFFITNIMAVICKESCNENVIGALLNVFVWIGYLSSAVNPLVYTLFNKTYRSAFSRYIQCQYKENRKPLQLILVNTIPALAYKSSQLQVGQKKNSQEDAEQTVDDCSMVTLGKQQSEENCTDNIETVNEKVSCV
Nature of the assay: Binding test on [3H] ketanserin, cerebral cortex receptor fraction. To be noted: 0.3 nM [3H] ketanserin, 37° C. 15 min, read-out: 5HT2. Details: species or system SD rats.

On to `CCN1CCN(c2nc(-c3ccc(S(=O)(=O)NCCOC)cc3)cc3ccccc23)CC1` [Example 354, 1-(4-ethylpiperazin-1-yl)-3-{4-[N-(2-methoxyethyl)sulfamoyl]phenyl}isoquinoline dihydrochloride], for which the figures for the Ki on serotonin 1A receptor and at serotonin 2 receptor were 3 nM and 1.3 nM, respectively.
Taken in the same sequence, the figures for `CCN1CCN(c2nc(-c3ccc(S(=O)(=O)CCCF)cc3)cc3ccccc23)CC1` [Example 355, 1-(4-ethylpiperazin-1-yl)-3-[4-(3-fluoropropyl)sulfonylphenyl]isoquinoline dihydrochloride] were 2.6 nM and 4.9 nM.
Taken in the same sequence, the figures for `CCN1CCN(c2nc(-c3ccc(S(=O)(=O)N4CCCC4)cc3)cc3ccccc23)CC1` [Example 356, 1-(4-ethylpiperazin-1-yl)-3-[4-(pyrrolidin-1-yl)sulfonylphenyl]isoquinoline dihydrochloride] were 2.1 nM and 24.2 nM.
The like results for `CCNS(=O)(=O)c1ccc(-c2cc3ccccc3c(N3CCN(CC)CC3)n2)cc1` [Example 357, 1-(4-ethylpiperazin-1-yl)-3-[4-(N-ethylsulfamoyl)phenyl]isoquinoline dihydrochloride] were, in that order, 2.8 nM and 0.58 nM.
Consider `CCCN(C)S(=O)(=O)c1ccc(-c2cc3ccccc3c(N3CCN(CC)CC3)n2)cc1` [Example 358, 1-(4-ethylpiperazin-1-yl)-3-[4-(N-methyl-N-propylsulfamoyl)phenyl]isoquinoline dihydrochloride], for which the Ki is 6.4 nM on serotonin 1A receptor and 19.1 nM on serotonin 2 receptor.
Taken in the same sequence, the figures for `CCN1CCN(c2nc(-c3ccc(S(=O)(=O)N(CC)CC)cc3)cc3ccccc23)CC1` [Example 359, 1-(4-ethylpiperazin-1-yl)-3-[4-(N,N-diethylsulfamoyl)phenyl]isoquinoline dihydrochloride] were 6.1 nM and 3.2 nM.
The like results for `CCC(C)NS(=O)(=O)c1ccc(-c2cc3ccccc3c(N3CCN(CC)CC3)n2)cc1` (centres unmarked) [Example 360, 1-(4-ethylpiperazin-1-yl)-3-{4-[N-(1-methylpropyl)sulfamoyl]phenyl}isoquinoline dihydrochloride] were, in that order, 2 nM and 1.5 nM.
The like results for `CCN1CCN(c2nc(-c3ccc(S(=O)(=O)NC)cc3)cc3ccccc23)CC1` [Example 361, 1-(4-ethylpiperazin-1-yl)-3-[4-(N-methylsulfamoyl)phenyl]isoquinoline dihydrochloride] were, in that order, 3.5 nM and 2.6 nM.
In the case of `CCN1CCN(c2nc(-c3ccc(S(=O)(=O)N(C)C)cc3)cc3ccccc23)CC1` [Example 362, 1-(4-ethylpiperazin-1-yl)-3-[4-(N,N-dimethylsulfamoyl)phenyl]isoquinoline dihydrochloride], the Ki at serotonin 1A receptor amounted to 4.5 nM; on serotonin 2 receptor, 24.1 nM.
The like results for `CCN1CCN(c2nc(-c3ccc(S(=O)(=O)NC4CC4)cc3)cc3ccccc23)CC1` [Example 363, 1-(4-ethylpiperazin-1-yl)-3-[4-(N-cyclopropylsulfamoyl)phenyl]isoquinoline dihydrochloride] were, in that order, 3.5 nM and 0.61 nM.
Taken in the same sequence, the figures for `CCNC(=O)c1ccc(-c2cc3ccccc3c(N3CCN(CC)CC3)n2)cc1` [Example 364, 1-(4-ethylpiperazin-1-yl)-3-[4-(N-ethylcarbamoyl)phenyl]isoquinoline dihydrochloride] were 21.7 nM and 3.9 nM.
Taken in the same sequence, the figures for `CCN1CCN(c2nc(-c3ccc(C(=O)NC)cc3)cc3ccccc23)CC1` [Example 365, 1-(4-ethylpiperazin-1-yl)-3-[4-(N-methylcarbamoyl)phenyl]isoquinoline dihydrochloride] were 26.2 nM and 9.9 nM.
In the case of `CCN1CCN(c2nc(-c3ccc(S(=O)(=O)CC)cc3)cc3ccccc23)CC1` [Example 366, 1-(4-ethylpiperazin-1-yl)-3-[4-(ethylsulfonyl)phenyl]isoquinoline dihydrochloride], the Ki on serotonin 1A receptor came out at 3.8 nM; at serotonin 2 receptor it was 7.2 nM.
The like results for `CCN1CCN(c2nc(-c3ccc(OCCOC)c(F)c3)cc3ccccc23)CC1` [Example 367, 1-(4-ethylpiperazin-1-yl)-3-(3-fluoro-4-methoxyethoxyphenyl)isoquinoline dihydrochloride] were, in that order, 55.2 nM and 3.3 nM.
The like results for `CCN1CCN(c2nc(-c3cc(F)c(OCCOC)c(F)c3)cc3ccccc23)CC1` [Example 368, 1-(4-ethylpiperazin-1-yl)-3-(3,5-difluoro-4-methoxyethoxyphenyl)isoquinoline dihydrochloride] were, in that order, 32 nM and 9.1 nM.
Regarding `CCN1CCN(c2nc(-c3ccc(OCCO)c(F)c3)cc3ccccc23)CC1` [Example 369, 1-(4-ethylpiperazin-1-yl)-3-[3-fluoro-4-(2-hydroxyethoxy)phenyl]isoquinoline dihydrochloride], the Ki on serotonin 1A receptor was 28.2 nM; at serotonin 2 receptor it was 2.5 nM.
The like results for `CCN1CCN(c2nc(-c3cc(F)c(OCCO)c(F)c3)cc3ccccc23)CC1` [Example 370, 1-(4-ethylpiperazin-1-yl)-3-[3,5-difluoro-4-(2-hydroxyethoxy)phenyl]isoquinoline] were, in that order, 23.9 nM and 3.4 nM.
With `CCN1CCN(c2nc(-c3cc(F)c(OCCF)c(F)c3)cc3ccccc23)CC1` [Example 371, 1-(4-ethylpiperazin-1-yl)-3-[3,5-difluoro-4-(2-fluoroethoxy)phenyl]isoquinoline dihydrochloride], the Ki at serotonin 1A receptor was 41 nM; on serotonin 2 receptor it was 4.3 nM.
Taken in the same sequence, the figures for `CCN1CCN(c2nc(Sc3ccccc3)cc3ccccc23)CC1` [Example 374, 1-(4-ethylpiperazin-1-yl)-3-(phenylthio)isoquinoline oxalate] were 44.5 nM and 24.7 nM.
The like results for `CCN1CCN(c2nc(-c3ccc(CC(C)=O)cc3)cc3ccccc23)CC1` [Example 375, 1-(4-ethylpiperazin-1-yl)-3-[4-(2-oxopropyl)phenyl]isoquinoline dihydrochloride] were, in that order, 30.5 nM and 7.6 nM.
Taken in the same sequence, the figures for `CCN1CCN(c2nc(-c3ccc(CC(C)O)cc3)cc3ccccc23)CC1` (centres unmarked) [Example 376, 1-(4-ethylpiperazin-1-yl)-3-[4-(2-hydroxypropyl)phenyl]isoquinoline oxalate] were 19.5 nM and 6.3 nM.
Turning to `CCN1CCN(c2nc(-c3ccc(CC(C)(C)O)cc3)cc3ccccc23)CC1` [Example 377, 1-(4-Ethylpiperazin-1-yl)-3-[4-(2-Hydroxy-2-Methylpropyl)Phenyl]Isoquinoline Oxalate], the Ki on serotonin 1A receptor came to 28.5 nM; on serotonin 2 receptor, 16.5 nM.
Taken in the same sequence, the figures for `CCN1CCN(c2nc(Sc3ccccn3)cc3ccccc23)CC1` [Example 378, 1-(4-Ethylpiperazin-1-yl)-3-(2-Pyridylthio)Isoquinoline Oxalate] were 42.7 nM and 95.2 nM.
The like results for `CCC/C(=N\O)c1ccc(-c2cc3ccccc3c(N3CCN(CC)CC3)n2)cc1` [Example 380, 1-(4-Ethylpiperazin-1-yl)-3-[4-(1-Hydroxyiminobutyl)Phenyl]Isoquinoline] were, in that order, 31.2 nM and 23 nM.
Taken in the same sequence, the figures for `CCCN(C)C(=O)c1ccc(-c2cc3ccccc3c(N3CCN(CC)CC3)n2)cc1` [Example 381] were 11.1 nM and 27.3 nM.
Consider `CCN1CCN(c2nc(-c3ccc(C(C)CCO)cc3)cc3ccccc23)CC1` (centres unmarked) [Example 383, 1-(4-Ethylpiperazin-1-yl)-3-[4-(3-Hydroxy-1-Methylpropyl)Phenyl]Isoquinoline Oxalate], for which the values for the Ki on serotonin 1A receptor and on serotonin 2 receptor were 7.4 nM and 3.4 nM, respectively.
`CCCNC(=O)c1ccc(-c2cc3ccccc3c(N3CCN(CC)CC3)n2)cc1F` [Example 384, 1-(4-Ethylpiperazin-1-yl)-3-[4-(N-Propylcarbamoyl)-3-Fluorophenyl]Isoquinoline Dihydrochloride]: the Ki was 27.3 nM at serotonin 1A receptor and 0.1 nM at serotonin 2 receptor.
For the compound `CCN1CCN(c2nc(-c3ccc(CCO)c(F)c3)cc3ccccc23)CC1` [Example 385, 1-(4-Ethylpiperazin-1-yl)-3-[3-Fluoro-4-(2-Hydroxyethyl)Phenyl]Isoquinoline Dihydrochloride], the Ki came to 14.8 nM at serotonin 1A receptor and 21.6 nM on serotonin 2 receptor.
The like results for `CCN1CCN(c2nc(-c3ccc(CC(C)CO)cc3)cc3ccccc23)CC1` (centres unmarked) [Example 386, 1-(4-Ethylpiperazin-1-yl)-3-[4-(3-Hydroxy-2-Methylpropyl)Phenyl]Isoquinoline Oxalate] were, in that order, 8.9 nM and 2.4 nM.
The like results for `CCN1CCN(c2nc(-c3ccc(C(O)CO)cc3)cc3ccccc23)CC1` (centres unmarked) [Example 387, 1-(4-Ethylpiperazin-1-yl)-3-[4-(1,2-Dihydroxyethyl)Phenyl]Isoquinoline Dihydrochloride] were, in that order, 25.1 nM and 24.7 nM.
The like results for `CCN1CCN(c2nc(-c3ccc(CCC(C)(C)O)cc3)cc3ccccc23)CC1` [Example 388, 1-(4-Ethylpiperazin-1-yl)-3-[4-(3-Hydroxy-3-Methylbutyl)Phenyl]Isoquinoline Dihydrochloride] were, in that order, 21.5 nM and 0.7 nM.
